Source: publication PMC10893631, “Receptor-based pharmacophore modeling, molecular docking, synthesis and biological evaluation of novel VEGFR-2, FGFR-1, and BRAF multi-kinase inhibitors” (BMC Chemistry, 2024)

Key:
Assay in all cases: NCI SRB growth inhibition (single dose 10 µM / five-dose)
Assay type in all cases: cell-based, human
[1] = system: 786–0
How it was run: (§1)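 Single-dose screen output reported as mean graph; selected compounds then run at five concentrations. Cells pre-grown 24 h before drug addition, fixed with TCA, and quantified by SRB dye binding.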

[2] = system: A498
How it was run: as §1

[3] = system: A549/ATCC
How it was run: as §1

[4] = system: ACHN
How it was run: as §1

[5] = system: BT-549
How it was run: as §1

[6] = system: CAKI-1
How it was run: as §1

[7] = system: CCRF-CEM
How it was run: as §1

[8] = system: COLO 205
How it was run: as §1

[9] = system: HCT-116
How it was run: as §1

[10] = system: HCT-15
How it was run: as §1

[11] = system: HS 578 T
How it was run: as §1

[12] = system: IGROV1
How it was run: as §1

[13] = system: K-562
How it was run: as §1

[14] = system: KM12
How it was run: as §1

[15] = system: MALME-3 M
How it was run: as §1

[16] = system: MDA-MB-231/ATCC
How it was run: as §1

[17] = system: MDA-MB-435
How it was run: as §1

[18] = system: NCI/ADR-RES
How it was run: as §1

[19] = system: OVCAR-4
How it was run: as §1

[20] = system: OVCAR-8
How it was run: as §1

[21] = system: RXF 393
How it was run: as §1

[22] = system: SK-MEL-28
How it was run: as §1

[23] = system: SK-MEL-2
How it was run: as §1

[24] = system: SK-OV-3
How it was run: as §1

[25] = system: SNB-75
How it was run: as §1

[26] = system: UACC-257
How it was run: as §1

With “N'-(2-Hydroxybenzylidene)-2-phenyl-1H-benzo[d]imidazole-5-carbohydrazide [8a]” the GI% ([1]; 786–0 (Renal cancer), 10 µM) was 91.76%, the GI50 ([1]; 786–0, Renal cancer, five-dose) was 3.84 µM and the GI% ([2]; A498 (Renal cancer), 10 µM) was “– (GI% < 5%)”. For the same compound, the GI50 ([2]; A498, Renal cancer, five-dose) was 16.9 µM, the GI% ([3]; A549/ATCC (Non-small cell lung cancer), 10 µM) was “L (GI% > 100)” and the GI50 ([3]; A549/ATCC, Non-small cell lung cancer, five-dose) was 3.41 µM. The GI% ([4]; ACHN (Renal cancer), 10 µM) was “L (GI% > 100)”, the GI50 ([4]; ACHN, Renal cancer, five-dose) was 3.28 µM and the GI% ([5]; BT-549 (Breast cancer), 10 µM) was “L (GI% > 100)”. The GI50 ([5]; BT-549, Breast cancer, five-dose) was 1800 nM, the GI% ([6]; CAKI-1 (Renal cancer), 10 µM) was “L (GI% > 100)” and the GI50 ([6]; CAKI-1, Renal cancer, five-dose) was 3.48 µM. The GI% ([7]; CCRF-CEM (Leukemia), 10 µM) was 88.16%, the GI50 ([7]; CCRF-CEM, Leukemia, five-dose) was 260 nM and the GI% ([8]; COLO 205 (Colon cancer), 10 µM) was “L (GI% > 100)”. The GI50 ([8]; COLO 205, Colon cancer, five-dose) was 1970 nM, the GI% ([9]; HCT-116 (Colon cancer), 10 µM) was “L (GI% > 100)” and the GI50 ([9]; HCT-116, Colon cancer, five-dose) was 880 nM. The GI% ([10]; HCT-15 (Colon cancer), 10 µM) was 94.00%, the GI50 ([10]; HCT-15, Colon cancer, five-dose) was 1070 nM and the GI% ([11]; HS 578 T (Breast cancer), 10 µM) was “L (GI% > 100)”. The GI50 ([11]; HS 578 T, Breast cancer, five-dose) was 2490 nM, the GI% ([12]; IGROV1 (Ovarian cancer), 10 µM) was 82.83% and the GI50 ([12]; IGROV1, Ovarian cancer, five-dose) was 3.9 µM. For the same compound, the GI% ([13]; K-562 (Leukemia), 10 µM) was 78.58%, the GI50 ([13]; K-562, Leukemia, five-dose) was 3.39 µM and the GI% ([14]; KM12 (Colon cancer), 10 µM) was 84.00%. For the same compound, the GI50 ([14]; KM12, Colon cancer, five-dose) was 3.72 µM, the GI% ([15]; MALME-3 M (Melanoma), 10 µM) was 99.32% and the GI50 ([15]; MALME-3 M, Melanoma, five-dose) was 1880 nM. It also gave a GI% ([16]; MDA-MB-231/ATCC (Breast cancer), 10 µM) of 88.16%, a GI50 ([16]; MDA-MB-231/ATCC, Breast cancer, five-dose) of 2030 nM and a GI% ([17]; MDA-MB-435 (Melanoma), 10 µM) of 63.10%. For the same compound, the GI50 ([17]; MDA-MB-435, Melanoma, five-dose) was 5.77 µM, the GI% ([18]; NCI/ADR-RES (Ovarian cancer), 10 µM) was 63.15% and the GI50 ([18]; NCI/ADR-RES, Ovarian cancer, five-dose) was 3.51 µM. The GI% ([19]; OVCAR-4 (Ovarian cancer), 10 µM) was 94.42%, the GI50 ([19]; OVCAR-4, Ovarian cancer, five-dose) was 2240 nM and the GI% ([20]; OVCAR-8 (Ovarian cancer), 10 µM) was “L (GI% > 100)”. For the same compound, the GI50 ([20]; OVCAR-8, Ovarian cancer, five-dose) was 2490 nM, the GI% ([21]; RXF 393 (Renal cancer), 10 µM) was “L (GI% > 100)” and the GI50 ([21]; RXF 393, Renal cancer, five-dose) was 2370 nM. The GI% ([22]; SK-MEL-28 (Melanoma), 10 µM) was 82.67%, the GI50 ([22]; SK-MEL-28, Melanoma, five-dose) was 4.62 µM and the GI% ([23]; SK-MEL-2 (Melanoma), 10 µM) was 60.21%. The GI50 ([23]; SK-MEL-2, Melanoma, five-dose) was 3.19 µM, the GI% ([24]; SK-OV-3 (Ovarian cancer), 10 µM) was “L (GI% > 100)” and the GI50 ([24]; SK-OV-3, Ovarian cancer, five-dose) was 2620 nM. For the same compound, the GI% ([25]; SNB-75 (CNS cancer), 10 µM) was “L (GI% > 100)”, the GI50 ([25]; SNB-75, CNS cancer, five-dose) was 2200 nM and the GI% ([26]; UACC-257 (Melanoma), 10 µM) was 88.80%. The GI50 ([26]; UACC-257, Melanoma, five-dose) was 4 µM.

Work on COc1ccc(-c2nc3cc(C(=O)NN=Cc4cc(OC)ccc4OC)ccc3[nH]2)cc1 [8m, N'-(2,5-Dimethoxybenzylidene)-2-(4-methoxyphenyl)-1H-benzo[d]imidazole-5-carbohydrazide] yielded an inhibition at 10 µM ([1]; Homo sapiens, 786–0 (Renal cancer), 10 µM, read-out: GI%) of 29%, an inhibition at 10 µM ([2]; Homo sapiens, A498 (Renal cancer), 10 µM, read-out: GI%) of under 5% and an inhibition at 10 µM ([3]; Homo sapiens, A549/ATCC (Non-small cell lung cancer), 10 µM, read-out: GI%) of 13.7%. The inhibition at 10 µM ([4]; Homo sapiens, ACHN (Renal cancer), 10 µM, read-out: GI%) was 8.59%, the inhibition at 10 µM ([5]; Homo sapiens, BT-549 (Breast cancer), 10 µM, read-out: GI%) was 17.2% and the inhibition at 10 µM ([6]; Homo sapiens, CAKI-1 (Renal cancer), 10 µM, read-out: GI%) was under 5%. The inhibition at 10 µM ([7]; Homo sapiens, CCRF-CEM (Leukemia), 10 µM, read-out: GI%) was 45.9%, the inhibition at 10 µM ([8]; Homo sapiens, COLO 205 (Colon cancer), 10 µM, read-out: GI%) was under 5% and the inhibition at 10 µM ([9]; Homo sapiens, HCT-116, read-out: GI%) was 22.3%. It also gave an inhibition at 10 µM ([10]; Homo sapiens, HCT-15 (Colon cancer), 10 µM, read-out: GI%) of 13.7%, an inhibition at 10 µM ([11]; Homo sapiens, HS 578 T (Breast cancer), 10 µM, read-out: GI%) of under 5% and an inhibition at 10 µM ([12]; Homo sapiens, IGROV-1, IGROV1 (Ovarian cancer), 10 µM, read-out: GI%) of under 5%. The inhibition at 10 µM ([13]; Homo sapiens, K562, K-562 (Leukemia), 10 µM, read-out: GI%) was 22.8%, the inhibition at 10 µM ([14]; Homo sapiens, KM12 (Colon cancer), 10 µM, read-out: GI%) was 11.7% and the inhibition at 10 µM ([15]; Homo sapiens, MALME-3 M (Melanoma), 10 µM, read-out: GI%) was 18.3%. It also gave an inhibition at 10 µM ([16]; Homo sapiens, MDA-MB-231/ATCC (Breast cancer), 10 µM, read-out: GI%) of 14.3%, an inhibition at 10 µM ([17]; Homo sapiens, MDA-MB-435 (Melanoma), 10 µM, read-out: GI%) of under 5% and an inhibition at 10 µM ([18]; Homo sapiens, NCI/ADR-RES (Ovarian cancer), 10 µM, read-out: GI%) of under 5%. It also gave an inhibition at 10 µM ([19]; Homo sapiens, OVCAR-4 (Ovarian cancer), 10 µM, read-out: GI%) of 8.31%, an inhibition at 10 µM ([20]; Homo sapiens, OVCAR-8 (Ovarian cancer), 10 µM, read-out: GI%) of 23.6% and an inhibition at 10 µM ([21]; Homo sapiens, RXF 393 (Renal cancer), 10 µM, read-out: GI%) of 15.2%. The inhibition at 10 µM ([22]; Homo sapiens, SK-MEL-28 (Melanoma), 10 µM, read-out: GI%) was 5.7%, the inhibition at 10 µM ([23]; Homo sapiens, SK-MEL-2 (Melanoma), 10 µM, read-out: GI%) was 11.1% and the inhibition at 10 µM ([24]; Homo sapiens, SK-OV-3 (Ovarian cancer), 10 µM, read-out: GI%) was under 5%. The inhibition at 10 µM ([25]; Homo sapiens, SNB-75 (CNS cancer), 10 µM, read-out: GI%) was under 5% and the inhibition at 10 µM ([26]; Homo sapiens, UACC-257 (Melanoma), 10 µM, read-out: GI%) was 14.3%.
